Values quoted from earlier work in US20080097086A1, “Process for preparing anti-tumor oligosaccharide material from chitosan” (TENWELL BIOTECHNOLOGY LIMITED, priority 2006, published 2008).
Values joined by “and” are separate entries in the source; they are usually repeats but may differ in a detail not shown here. Equal entries are not always repeated.

Experiments:
[1] = tested on: S180; details: intravenous, S180-implanted ddY mice
[2] = tested on: fibrosarcoma (Meth-A) solid tumor cells

Substance: chitohexaose
- inhibitory rate on tumor growth ([1]; 3 times at 100 mg/Kg/d, after seven days, 100 mg/kg/day): 85% and 93%
- control of tumor growth ([1]; increased to 5 times): complete control of tumor growth
- dose displaying the strongest effect ([2]; Meth-A solid tumor): 10 mg/kg
- inhibition of Meth-A solid tumor ([2]; in vivo): significant inhibition
